Experimental data from ChEMBL document CHEMBL2311389, “Pyrazole-based arylalkyne cathepsin S inhibitors. Part III: modification of P4 region” (Bioorg Med Chem Lett, 2013).
In brackets after ≈: the same amount, converted by molar mass.

What was measured:
[1] = Equilibrium solubility in pH 7.0 phosphate buffer by LC/MS method; format: physicochemical
Cathepsin S [2] = target: T1, Cathepsin S (Homo sapiens, UniProt P25774); experiment: Inhibition of cathepsin S in human JY cells assessed as invariant chain-li degradation; format: cell-based
Cathepsin S [3] = target: T1, Cathepsin S; experiment: Inhibition of human cathepsin S
[4] = target: Voltage-gated inwardly rectifying potassium channel KCNH2 (Homo sapiens, UniProt Q12809); experiment: Inhibition of human ERG by patch clamp assay
Sequence of Voltage-gated inwardly rectifying potassium channel KCNH2 (Q12809 whole entry): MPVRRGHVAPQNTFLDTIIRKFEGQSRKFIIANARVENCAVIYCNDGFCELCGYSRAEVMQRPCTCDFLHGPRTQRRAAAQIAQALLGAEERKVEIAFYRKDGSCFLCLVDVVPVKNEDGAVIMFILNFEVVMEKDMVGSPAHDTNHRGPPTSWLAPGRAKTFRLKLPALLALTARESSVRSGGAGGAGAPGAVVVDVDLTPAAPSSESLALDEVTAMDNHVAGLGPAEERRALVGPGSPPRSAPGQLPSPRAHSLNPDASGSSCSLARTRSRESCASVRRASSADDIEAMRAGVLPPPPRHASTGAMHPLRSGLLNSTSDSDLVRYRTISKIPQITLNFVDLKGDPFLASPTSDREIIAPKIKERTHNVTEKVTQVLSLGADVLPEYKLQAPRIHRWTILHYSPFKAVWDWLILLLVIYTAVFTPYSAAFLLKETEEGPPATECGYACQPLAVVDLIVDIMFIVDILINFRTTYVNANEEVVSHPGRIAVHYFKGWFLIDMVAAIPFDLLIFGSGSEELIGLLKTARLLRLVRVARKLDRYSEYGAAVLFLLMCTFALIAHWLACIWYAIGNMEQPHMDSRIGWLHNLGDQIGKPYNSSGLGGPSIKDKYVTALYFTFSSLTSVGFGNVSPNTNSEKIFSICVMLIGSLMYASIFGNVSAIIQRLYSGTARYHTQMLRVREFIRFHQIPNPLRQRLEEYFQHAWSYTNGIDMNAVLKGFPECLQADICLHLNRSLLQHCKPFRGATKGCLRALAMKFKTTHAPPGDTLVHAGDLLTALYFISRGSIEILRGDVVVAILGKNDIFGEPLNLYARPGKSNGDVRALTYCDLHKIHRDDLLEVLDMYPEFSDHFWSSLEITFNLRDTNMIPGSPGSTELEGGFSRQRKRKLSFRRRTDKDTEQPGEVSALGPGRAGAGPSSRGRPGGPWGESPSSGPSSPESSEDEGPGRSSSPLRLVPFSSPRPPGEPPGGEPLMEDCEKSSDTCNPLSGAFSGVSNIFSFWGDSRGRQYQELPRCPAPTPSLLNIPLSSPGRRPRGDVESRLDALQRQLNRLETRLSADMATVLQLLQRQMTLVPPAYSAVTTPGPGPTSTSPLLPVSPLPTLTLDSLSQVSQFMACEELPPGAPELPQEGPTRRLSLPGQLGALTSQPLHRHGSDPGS

T1 sequence (P25774 whole entry): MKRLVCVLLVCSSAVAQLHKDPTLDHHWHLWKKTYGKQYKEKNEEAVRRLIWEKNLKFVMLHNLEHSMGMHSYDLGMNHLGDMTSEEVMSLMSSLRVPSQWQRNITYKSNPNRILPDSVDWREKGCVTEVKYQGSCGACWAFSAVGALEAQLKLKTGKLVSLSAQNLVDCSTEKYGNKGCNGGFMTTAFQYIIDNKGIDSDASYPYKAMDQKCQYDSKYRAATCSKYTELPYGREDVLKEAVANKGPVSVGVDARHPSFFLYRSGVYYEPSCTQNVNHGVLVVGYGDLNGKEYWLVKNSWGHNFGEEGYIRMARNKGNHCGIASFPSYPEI

| solubility thermodynamic [1] [µM] | IC50 (Cathepsin S [2]) [nM] | IC50 (Cathepsin S [3]) [nM] | SMILES | inhibition (INH) [4] |
| --- | --- | --- | --- | --- |
| < 1 | – | – | NC(=O)C(=O)N1CCc2c(c(-c3ccc(C(F)(F)F)c(SCCN4CCC(F)CC4)c3)nn2C[C@@H](O)CN2CCCCC2)C1 | – |
| 66 (≈ 44 µg/mL) | 630 | – | NC(=O)N1CCc2c(c(-c3ccc(Cl)c(C#Cc4ccc(Cl)c(C(=O)N5CCNCC5)c4)c3)nn2CCCN2CCSCC2)C1 | – |
| < 1 | 560 | 10 | NC(=O)C(=O)N1CCc2c(c(-c3ccc(Cl)c(C#Cc4ccc(CNCc5ccc(Cl)cc5)cc4)c3)nn2CCCN2CCN(c3ccccc3)CC2)C1 | – |
| < 1 | 870 | 70 | NC(=O)N1CCc2c(c(-c3ccc(Cl)c(C#Cc4ccc(CNCc5ccc(Cl)cc5)cc4)c3)nn2CCCN2CCSCC2)C1 | Not Active |
| < 1 | 270 | – | NC(=O)C(=O)N1CCc2c(c(-c3ccc(Cl)c(C#Cc4ccc(CNCc5ccc(Cl)cc5)cc4)c3)nn2CCCN2CCSCC2)C1 | – |
| < 1 | 960 | 50 | C[C@@H]1COCCN1CCCn1nc(-c2ccc(Cl)c(C#Cc3ccc(CNCc4ccc(Cl)cc4)cc3)c2)c2c1CCN(C(=O)C(N)=O)C2 | Not Active |
| – | > 10000 | – | NC(=O)N1CCc2c(c(-c3ccc(Cl)c(C#Cc4ccc(C(=O)NCc5ccc(Cl)cc5)cc4)c3)nn2CCCN2CCSCC2)C1 | – |
| – | > 10000 | – | NC(=O)N1CCc2c(c(-c3ccc(Cl)c(C#Cc4ccc(C(=O)NCc5cccnc5)cc4)c3)nn2CCCN2CCSCC2)C1 | – |
| 81 (≈ 52.3 µg/mL) | > 10000 | – | NC(=O)N1CCc2c(c(-c3ccc(Cl)c(C#Cc4ccc(C(=O)NC[C@@H]5CCCN5)cc4)c3)nn2CCCN2CCSCC2)C1 | – |
| – | > 10000 | – | NC(=O)N1CCc2c(c(-c3ccc(Cl)c(C#Cc4ccc(COCc5cccnc5)cc4)c3)nn2CCCN2CCSCC2)C1 | – |
| 175 (≈ 119 µg/mL) | 620 | – | NC(=O)N1CCc2c(c(-c3ccc(Cl)c(C#Cc4ccc(Cl)c(C(=O)NC[C@@H]5CCCN5)c4)c3)nn2CCCN2CCSCC2)C1 | – |
| 9 (≈ 6.4 µg/mL) | 610 | – | NC(=O)N1CCc2c(c(-c3ccc(Cl)c(C#Cc4ccc(Cl)c(C(=O)NCCN5CCOCC5)c4)c3)nn2CCCN2CCSCC2)C1 | – |
| – | 5000 | – | CN(C)S(=O)(=O)N1CCc2c(c(-c3ccc(Cl)c(C#Cc4ccc(CNCc5ccc(Cl)cc5)cc4)c3)nn2CCCN2CCOCC2)C1 | – |
| – | 1100 | – | CC(=O)NCC(=O)N1CCc2c(c(-c3ccc(Cl)c(C#Cc4ccc(CNCc5ccc(Cl)cc5)cc4)c3)nn2CCCN2CCOCC2)C1 | – |
| < 1 | 510 | 60 | NC(=O)C(=O)N1CCc2c(c(-c3ccc(Cl)c(C#Cc4ccc(CNCc5ccc(Cl)cc5)cc4)c3)nn2CCCN2CCOCC2)C1 | – |
| < 1 | 1750 | – | CN(C)C(=O)C(=O)N1CCc2c(c(-c3ccc(Cl)c(C#Cc4ccc(CNCc5ccc(Cl)cc5)cc4)c3)nn2CCCN2CCOCC2)C1 | – |
| – | 200 | – | NC(=O)N1CCc2c(c(-c3ccc(Cl)c(C#Cc4ccc(CNCc5ccc(Cl)cc5)cc4)c3)nn2CCCN2CCCCC2)C1 | – |
| – | 300 | – | NC(=O)C(=O)N1CCc2c(c(-c3ccc(Cl)c(C#Cc4ccc(CNCc5ccc(Cl)cc5)cc4)c3)nn2CCCN2CCCCC2)C1 | – |
| < 1 | 690 | 60 | NC(=O)N1CCc2c(c(-c3ccc(Cl)c(C#Cc4ccc(CNCc5ccc(Cl)cc5)cc4)c3)nn2CCCN2CCC(C(F)(F)F)CC2)C1 | – |
| < 1 | 1770 | – | NC(=O)C(=O)N1CCc2c(c(-c3ccc(Cl)c(C#Cc4ccc(CNCc5ccc(Cl)cc5)cc4)c3)nn2CCCN2CCC(C(F)(F)F)CC2)C1 | – |
| – | 710 | – | NC(=O)N1CCc2c(c(-c3ccc(Cl)c(C#Cc4ccc(CNCc5ccc(Cl)cc5)cc4)c3)nn2CCCN2CCN(c3ccccc3)CC2)C1 | – |
| – | 440 | – | NC(=O)N1CCc2c(c(-c3ccc(Cl)c(C#Cc4ccc(CNCc5ccc(Cl)cc5)cc4)c3)nn2CCCN2CCOCC2)C1 | – |
| < 1 | – | – | CS(=O)(=O)N1CCc2c(c(-c3ccc(Cl)c(C#Cc4ccc(CNCc5ccc(Cl)cc5)cc4)c3)nn2CCCN2CCOCC2)C1 | – |
| 46 (≈ 29.9 µg/mL) | > 10000 | – | NC(=O)N1CCc2c(c(-c3ccc(Cl)c(C#Cc4ccc(COCC5CNCCO5)cc4)c3)nn2CCCN2CCSCC2)C1 (racemic) | – |
| – | 510 | – | NC(=O)N1CCc2c(c(-c3ccc(Cl)c(C#Cc4ccc(Cl)c(C(=O)NCC5CCCNC5)c4)c3)nn2CCCN2CCSCC2)C1 (racemic) | – |

| SMILES | solubility thermodynamic [1] [µM] | IC50 (Cathepsin S [2]) [nM] | IC50 (Cathepsin S [3]) [nM] | inhibition (INH) [4] |
| --- | --- | --- | --- | --- |
| C[C@@H]1COCCN1CCCn1nc(-c2ccc(Cl)c(C#Cc3ccc(CNCc4ccc(Cl)cc4)cc3)c2)c2c1CCN(C(N)=O)C2 | 3 (≈ 2.02 µg/mL) | 1540 | 110 | – |
